Source: ChEMBL document CHEMBL1143404, “New plasmid-mediated fluoroquinolone efflux pump, QepA, found in an Escherichia coli clinical isolate” (2007)
Values after ≈ are worked out from the molar mass of the structure shown.

Experiments:
Assay type in all cases: functional
Escherichia coli [1] = assay: Antimicrobial activity against Escherichia coli KAM32 pSTV28 containing chloramphenicol-resistant vector by agar dilution method
Escherichia coli [2] = assay: Antimicrobial activity against Escherichia coli KAM32 pSTVdeltaqepA containing disrupted qepA gene by agar dilution method
Escherichia coli [3] = assay: Antimicrobial activity against multidrug-resistant Escherichia coli C316 pHPA containing mutated GyrA gene by agar dilution method
Escherichia coli [4] = assay: Antimicrobial activity against Escherichia coli KAM32 pSTVqepA containing qepA gene ligated to pSTV28 plasmid by agar dilution method
Escherichia coli [5] = assay: Antimicrobial activity against Escherichia coli KAM32 pHPA containing mutated GyrA gene by agar dilution method
Escherichia coli [6] = assay: Antimicrobial activity against Escherichia coli KAM32 expressing deltaacrB ydhE hsd gene by agar dilution method
Escherichia coli [7] = assay: Ratio of MIC for Escherichia coli KAM32 pSTVqepA mutant to MIC for Escherichia coli KAM32 pSTV28 mutant

Structure (SMILES)	MIC (Escherichia coli [1]) [µg/mL]	MIC (Escherichia coli [2]) [µg/mL]	MIC (Escherichia coli [3]) [µg/mL]	MIC (Escherichia coli [4]) [µg/mL]	MIC (Escherichia coli [5]) [µg/mL]	MIC (Escherichia coli [6]) [µg/mL]	Ratio (Escherichia coli [7])
C[C@H]1COc2c(N3CCN(C)CC3)c(F)cc3c(=O)c(C(=O)O)cn1c23.C[C@H]1COc2c(N3CCN(C)CC3)c(F)cc3c(=O)c(C(=O)O)cn1c23.O [LEVOFLOXACIN]	0.004	0.004	32	–	–	–	–
CCn1cc(C(=O)O)c(=O)c2cc(F)c(N3CCNC(C)C3)c(F)c21 (configuration not stated) [LOMEFLOXACIN]	0.032 (≈ 0.0911 µM)	0.032 (≈ 0.0911 µM)	> 128	0.064 (≈ 0.182 µM)	0.064 (≈ 0.182 µM)	0.032 (≈ 0.0911 µM)	2
COc1c(N2C[C@@H]3CCCN[C@@H]3C2)c(F)cc2c(=O)c(C(=O)O)cn(C3CC3)c12 [MOXIFLOXACIN]	0.002 (≈ 0.00498 µM)	0.002 (≈ 0.00498 µM)	32 (≈ 79.7 µM)	0.016 (≈ 0.0399 µM)	0.016 (≈ 0.0399 µM)	0.002 (≈ 0.00498 µM)	8
CCn1cc(C(=O)O)c(=O)c2ccc(C)nc21 [NALIDIXIC ACID]	1 (≈ 4.31 µM)	1 (≈ 4.31 µM)	> 128	2 (≈ 8.61 µM)	1 (≈ 4.31 µM)	1 (≈ 4.31 µM)	2
CCn1cc(C(=O)O)c(=O)c2cc(F)c(N3CCNCC3)cc21 [NORFLOXACIN]	0.016 (≈ 0.0501 µM)	0.016 (≈ 0.0501 µM)	> 128	1 (≈ 3.13 µM)	0.25 (≈ 0.783 µM)	0.016 (≈ 0.0501 µM)	64
C[C@H]1COc2c(C3(N)CC3)c(F)cc3c(=O)c(C(=O)O)cn1c23 [PAZUFLOXACIN]	0.004 (≈ 0.0126 µM)	0.004 (≈ 0.0126 µM)	16 (≈ 50.3 µM)	0.016 (≈ 0.0503 µM)	0.016 (≈ 0.0503 µM)	0.004 (≈ 0.0126 µM)	4
CC/N=c1\cc2oc3cc(NCC)c(C)cc3c(-c3ccccc3C(=O)OCC)c-2cc1C.Cl [RHODAMINE 6G HYDROCHLORIDE]	4	4	> 128	4	4	4	1
CCCCCCCCCCCCOS(=O)(=O)[O-].[Na+] [SODIUM LAURYL SULFATE]	128	> 128	–	128	128	128	1
C[C@@H]1CN(c2c(F)c(N)c3c(=O)c(C(=O)O)cn(C4CC4)c3c2F)C[C@H](C)N1 [SPARFLOXACIN]	0.001 (≈ 0.00255 µM)	0.001 (≈ 0.00255 µM)	16 (≈ 40.8 µM)	0.002 (≈ 0.0051 µM)	0.002 (≈ 0.0051 µM)	0.001 (≈ 0.00255 µM)	2
CN(C)[C@@H]1C(O)=C(C(N)=O)C(=O)[C@@]2(O)C(O)=C3C(=O)c4c(O)cccc4[C@@](C)(O)[C@H]3C[C@@H]12 [TETRACYCLINE]	0.25 (≈ 0.563 µM)	0.125 (≈ 0.281 µM)	> 128	0.25 (≈ 0.563 µM)	0.25 (≈ 0.563 µM)	0.25 (≈ 0.563 µM)	1
NC1CCN(c2nc3c(cc2F)c(=O)c(C(=O)O)cn3-c2ccc(F)cc2F)C1 (configuration not stated) [TOSUFLOXACIN]	0.002 (≈ 0.00495 µM)	0.002 (≈ 0.00495 µM)	> 128	0.032 (≈ 0.0791 µM)	0.032 (≈ 0.0791 µM)	0.002 (≈ 0.00495 µM)	16
